species on record: Homo sapiens; experiment: Compound was evaluated for inhibition of LTB4 induced chemotaxis of human neutrophils; type: functional

Row | IC50 [µM] | Compound
1 | 0.32 | CCc1cc(C(C)=O)c(O)cc1OCCCOc1ccc2c(=O)c3cc(C(=O)O)ccc3oc2c1CCC(=O)O
2 | 6 | COc1ccc(/C=C/CCCCOc2ccc(C(=O)c3cccc(C(=O)O)c3)cc2CCC(=O)O)cc1
3 | 16 | CCc1cc(C(C)=O)c(O)cc1OCCCOc1ccc(C(=O)c2cccc(C(=O)O)c2)cc1CCC(=O)O
4 | 7.4 | CCc1cc(C(C)=O)c(O)cc1OCCCCCC(C)(C)c1nn[nH]n1 [LY-255283]

— ChEMBL document CHEMBL1127112, “Synthesis and pharmacologic activity of hydroxyacetophenone-substituted benzophenone/xanthone leukotriene B4 receptor antagonists” (Bioorg Med Chem Lett, 1993)
